Results reported in patent US20250228239A1, “MOLECULES HAVING PESTICIDAL UTILITY, AND INTERMEDIATES, COMPOSITIONS, AND PROCESSES, RELATED THERETO” (priority 2024, published 2025).

What was measured:
Format in all cases: in vivo
[1] = system: Beet Armyworm (Spodoptera exigua, LAPHEG); experiment: Bioassays on Beet Armyworm (BAW), 128-well diet tray assay; conditions: Spodoptera exigua; Table ABC: Biological Results; species BAW; read-out: BAW
Procedure, shortened: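 Larvae at second instar are exposed on dried, compound-treated diet (50 μg/cm^2, delivered in 90:10 acetone-water) in eight replicate wells. After five to seven days at 25° C., 14:10 light-dark, percent mortality in each well is scored and the eight wells averaged.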

[2] = system: Yellow Fever Mosquito (Aedes aegypti, AEDSAE); conditions: Table ABC: Biological Results; species YFM
Description: Certain molecules disclosed in this document were tested against YFM using procedures described in the following paragraph. In the reporting of the results, the “GPA & YFM Rating Table” was used (See Table Section).
Master plates containing 400 μg of a molecule dissolved in 100 μL of dimethyl sulfoxide (DMSO) (equivalent to a 4000 ppm solution) are used. A master plate of assembled molecules contains 15 μL per well. To this plate, 135 μL of a 90:10 water/acetone mixture is added to each well. A robot (Biomek® NXP Laboratory Automation Workstation) is programmed to dispense 15 μL aspirations from the master plate into an empty 96-well shallow plate (“daughter” plate). There are 6 reps (“daughter” plates) created per master. The created “daughter” plates are then immediately infested with YFM larvae.
The day before plates are to be treated, mosquito eggs are placed in Millipore water containing liver powder to begin hatching (4 g into 400 mL). After the “daughter” plates are created using the robot, they are infested with 220 μL of the liver powder/larval mosquito mixture (about 1 day-old larvae). After plates are infested with mosquito larvae, a non-evaporative lid is used to cover the plate to reduce drying. Plates are held at room temperature for 3 days prior to grading. After 3 days, each well is observed and scored based on mortality. The results are indicated in the table entitled “Table ABC: Biological Results” (See Table Section).

[3] = system: Cabbage Looper (Trichoplusia ni, TRIPNI); experiment: Bioassays on Cabbage Looper (CL), 128-well diet tray assay; conditions: Trichoplusia ni; Table ABC: Biological Results; species CL; read-out: CL
Procedure, shortened: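 Percent mortality, averaged across eight replicate wells, after second-instar larvae (1–5 per well) fed for five to seven days on diet dosed at 50 μg/cm^2. Compound was applied in acetone-water 90:10 and dried; trays kept vented at 25° C under 14:10 photoperiod.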

SMILES	pest or weed control at 50 µg/cm2 [1] [%]	YFM [2]	pest or weed control at 50 µg/cm2 [3] [%]
Nc1c(F)ccc(NC(=O)c2cc(NC(=O)[C@H]3[C@H](c4cc(Br)cc(S(F)(F)(F)(F)F)c4)C3(Cl)Cl)ccc2Cl)c1F (relative stereo) [F1042, trans-N-(3-Amino-2,4-difluorophenyl)-5-(3-(3-bromo-5-(pentafluoro-λ^6-sulfanyl)phenyl)-2,2-dichlorocyclopropane-1-carboxamido)-2-chlorobenzamide]	50 to 100	A (80–100)	50 to 100
Nc1c(F)ccc(NC(=O)c2cc(NC(=O)[C@H]3[C@@H](c4cc(Br)cc(S(F)(F)(F)(F)F)c4)C3(Cl)Cl)ccc2Cl)c1F (relative stereo) [F1043, cis-N-(3-Amino-2,4-difluorophenyl)-5-(3-(3-bromo-5-(pentafluoro-λ^6-sulfanyl)phenyl)-2,2-dichlorocyclopropane-1-carboxamido)-2-chlorobenzamide]	50 to 100	A (80–100)	50 to 100
Nc1c(F)ccc(NC(=O)c2cc(NC(=O)[C@H]3[C@H](c4cc(F)c(F)c(Br)c4)C3(Cl)Cl)ccc2Cl)c1F (relative stereo) [F1044, trans-N-(3-Amino-2,4-difluorophenyl)-5-(3-(3-bromo-4,5-difluorophenyl)-2,2-dichlorocyclopropane-1-carboxamido)-2-chlorobenzamide]	50 to 100	A (80–100)	50 to 100
Nc1c(F)ccc(NC(=O)c2cc(NC(=O)[C@H]3[C@@H](c4cc(F)c(F)c(Br)c4)C3(Cl)Cl)ccc2Cl)c1F (relative stereo) [F1045, cis-N-(3-Amino-2,4-difluorophenyl)-5-(3-(3-bromo-4,5-difluorophenyl)-2,2-dichlorocyclopropane-1-carboxamido)-2-chlorobenzamide]	50 to 100	A (80–100)	50 to 100
Nc1c(F)ccc(NC(=O)c2cc(NC(=O)[C@H]3[C@H](c4cc(F)c(Cl)c(Cl)c4)C3(Cl)Cl)ccc2Cl)c1F (relative stereo) [F1046, trans-N-(3-Amino-2,4-difluorophenyl)-2-chloro-5-(2,2-dichloro-3-(3,4-dichloro-5-fluorophenyl)cyclopropane-1-carboxamido)benzamide]	50 to 100	A (80–100)	50 to 100
Nc1c(F)ccc(NC(=O)c2cc(NC(=O)[C@H]3[C@@H](c4cc(F)c(Cl)c(Cl)c4)C3(Cl)Cl)ccc2Cl)c1F (relative stereo) [F1047, cis-N-(3-Amino-2,4-difluorophenyl)-2-chloro-5-(2,2-dichloro-3-(3,4-dichloro-5-fluorophenyl)cyclopropane-1-carboxamido)benzamide]	50 to 100	A (80–100)	50 to 100
Nc1c(F)ccc(NC(=O)c2cc(NC(=O)[C@H]3[C@H](c4ccc(F)c(Cl)c4F)C3(Cl)Cl)ccc2Cl)c1F (relative stereo) [F1049, trans-N-(3-Amino-2,4-difluorophenyl)-2-chloro-5-(2,2-dichloro-3-(3-chloro-2,4-difluorophenyl)cyclopropane-1-carboxamido)benzamide]	50 to 100	A (80–100)	50 to 100
O=C(Nc1ccc(F)cc1F)c1cc(NC(=O)[C@H]2[C@H](c3cc(C(F)(F)F)cc(Cl)c3F)C2(Cl)Cl)ccc1Cl (relative stereo) [F1050, trans-2-Chloro-5-(2,2-dichloro-3-(3-chloro-2-fluoro-5-(trifluoromethyl)phenyl)cyclopropane-1-carboxamido)-N-(2,4-difluorophenyl)benzamide]	50 to 100	A (80–100)	50 to 100
O=C(Nc1ccc(F)cc1F)c1cc(NC(=O)[C@H]2[C@@H](c3cc(C(F)(F)F)cc(Cl)c3F)C2(Cl)Cl)ccc1Cl (relative stereo) [F1051, cis-2-Chloro-5-(2,2-dichloro-3-(3-chloro-2-fluoro-5-(trifluoromethyl)phenyl)cyclopropane-1-carboxamido)-N-(2,4-difluorophenyl)benzamide]	50 to 100	A (80–100)	50 to 100
Cc1cc(Br)ccc1NC(=O)c1cc(NC(=O)[C@H]2[C@H](c3cc(Cl)cc(Cl)c3)C2(Cl)Cl)ccc1Cl (relative stereo) [F1054, trans-N-(4-Bromo-2-methylphenyl)-2-chloro-5-(2,2-dichloro-3-(3,5-dichlorophenyl)cyclopropane-1-carboxamido)benzamide]	50 to 100	A (80–100)	50 to 100
O=C(Nc1ccc(F)cc1)c1cc(NC(=O)[C@H]2[C@H](c3cc(Cl)cc(Cl)c3)C2(F)F)ccc1Cl (relative stereo) [F1057, trans-2-Chloro-5-(3-(3,5-dichlorophenyl)-2,2-difluorocyclopropane-1-carboxamido)-N-(4-fluorophenyl)benzamide]	50 to 100	A (80–100)	50 to 100
O=C(Nc1ccc(F)cc1F)c1cc(NC(=O)[C@H]2[C@H](c3cc(Cl)cc(Cl)c3)C2(F)F)ccc1Cl (relative stereo) [F1058, trans-2-Chloro-5-(3-(3,5-dichlorophenyl)-2,2-difluorocyclopropane-1-carboxamido)-N-(2,4-difluorophenyl)benzamide]	50 to 100	A (80–100)	50 to 100
CC(=O)Nc1ccc(NC(=O)c2cc(NC(=O)[C@H]3[C@H](c4ccc(Cl)c(Cl)c4)C3(Cl)Cl)ccc2Cl)c(C)c1 (relative stereo) [F1059, trans-N-(4-Acetamido-2-methylphenyl)-2-chloro-5-(2,2-dichloro-3-(3,4-dichlorophenyl)cyclopropane-1-carboxamido)benzamide]	50 to 100	A (80–100)	50 to 100
Cc1cc(NC(=O)C(F)(F)F)ccc1NC(=O)c1cc(NC(=O)[C@H]2[C@H](c3ccc(Cl)c(Cl)c3)C2(Cl)Cl)ccc1Cl (relative stereo) [F1061, trans-2-Chloro-5-(2,2-dichloro-3-(3,4-dichlorophenyl)cyclopropane-1-carboxamido)-N-(2-methyl-4-(2,2,2-trifluoroacetamido)phenyl)benzamide]	50 to 100	A (80–100)	50 to 100
Cc1cc(NC(=O)C(F)F)ccc1NC(=O)c1cc(NC(=O)[C@H]2[C@H](c3ccc(Cl)c(Cl)c3)C2(Cl)Cl)ccc1Cl (relative stereo) [F1062, trans-2-Chloro-5-(2,2-dichloro-3-(3,4-dichlorophenyl)cyclopropane-1-carboxamido)-N-(4-(2,2-difluoroacetamido)-2-methylphenyl)benzamide]	50 to 100	A (80–100)	50 to 100
Cc1cc([C@H]2[C@H](C(=O)Nc3ccc(Cl)c(C(=O)Nc4ccc(F)cc4F)c3)C2(Cl)Cl)cc(C(F)(F)F)c1F (relative stereo) [F1066, trans-2-Chloro-5-(2,2-dichloro-3-(4-fluoro-3-methyl-5-(trifluoromethyl)phenyl)cyclopropane-1-carboxamido)-N-(2,4-difluorophenyl)benzamide]	50 to 100	A (80–100)	50 to 100
Cc1cc([C@@H]2[C@H](C(=O)Nc3ccc(Cl)c(C(=O)Nc4ccc(F)cc4F)c3)C2(Cl)Cl)cc(C(F)(F)F)c1F (relative stereo) [F1067, cis-2-Chloro-5-(2,2-dichloro-3-(4-fluoro-3-methyl-5-(trifluoromethyl)phenyl)cyclopropane-1-carboxamido)-N-(2,4-difluorophenyl)benzamide]	50 to 100	A (80–100)	50 to 100
CC(C)(C)OC(=O)Nc1c(F)ccc(NC(=O)c2cc(NC(=O)[C@H]3[C@H](c4cc(Cl)cc(Cl)c4)C3(F)F)ccc2Cl)c1F (relative stereo) [F1070, trans-tert-Butyl (3-(2-chloro-5-(3-(3,5-dichlorophenyl)-2,2-difluorocyclopropane-1-carboxamido)benzamido)-2,6-difluorophenyl)carbamate]	50 to 100	A (80–100)	50 to 100
